Reference: ChEMBL document CHEMBL5390225, “Discovery and structural optimization of a new series of N-acyl-2-aminobenzothiazole as inhibitors of Zika virus” (Bioorg Med Chem, 2023)

Experiments:
[1] = system: Zika virus; test: Antiviral activity against Zika virus PE243 infected in African green monkey Vero E6 cells assessed as inhibition of viral replication at 10 uM incubated for 72 hrs by immunofluorescence analysis; type: functional; details: PE243, Vero C1008
[2] = system: Zika virus; test: Antiviral activity against Zika virus PE243 infected in African green monkey Vero E6 cells assessed as inhibition of viral replication at 2 uM incubated for 72 hrs by immunofluorescence analysis; type: functional; details: PE243, Vero C1008
[3] = Cytotoxicity against African green monkey Vero E6 cells assessed as cell viability at 10 uM measured after 72 hrs by MTT assay relative to control; type: toxicity, cell-based, Vero C1008; details: chlorocebus sabaeus, read-out: Activity
[4] = Cytotoxicity against African green monkey Vero E6 cells assessed as cell viability at 2 uM measured after 72 hrs by MTT assay relative to control; type: toxicity, cell-based, Vero C1008; details: chlorocebus sabaeus, read-out: Activity
[5] = system: Zika virus; test: Inhibition of Zika virus BeH823339 NS2B protease (49 to 95 residues) R96A mutant/NS3 protease (1 to 170 residues) R29G/ C80S/C143S mutant expressed in Escherichia coli BL21 (DE3) cells using Bz-Nle-Lys-Lys-Arg-AMC as a fluorogenic substrate at 100 uM preincubated with enzyme for 10 mins by fluorescence-based analysis relative to control
[6] = system: Zika virus; test: Inhibition of Zika virus BeH823339 NS2B protease (49 to 95 residues) R96A mutant/NS3 protease (1 to 170 residues) R29G/ C80S/C143S mutant expressed in Escherichia coli BL21 (DE3) cells using Bz-Nle-Lys-Lys-Arg-AMC as a fluorogenic substrate at 100 uM by fluorescence-based analysis relative to control
[7] = system: Zika virus; test: Antiviral activity against Zika virus PE243 infected in African green monkey Vero E6 cells assessed as inhibition of viral replication incubated for 72 hrs by immunofluorescence analysis; type: functional, organism-based; details: PE243, Vero C1008, 72 h
[8] = Cytotoxicity against African green monkey Vero E6 cells assessed as reduction in cell viability measured after 72 hrs by MTT assay; type: toxicity, cell-based, Vero C1008; details: chlorocebus sabaeus
[9] = Selectivity index, ratio of CC50 for cytotoxicity against African green monkey Vero E6 cells to EC50 for antiviral activity against Zika virus PE243 infected in African green monkey Vero E6 cells; type: toxicity, cell-based, Vero C1008; details: read-out: Ratio CC50/EC50
[10] = system: Zika virus; test: Antiviral activity against Zika virus infected in golden hamster BHK21-RepZIKV_IRES-Neo cells assessed as inhibition of viral replication by measuring reduction in renilla luciferase expression at 10 uM measured after 72 hrs by luciferase reporter gene assay relative to control; type: functional, Mesocricetus auratus; details: BHK-21
[11] = system: BHK-21; test: Cytotoxicity against golden hamster BHK21-RepZIKV_IRES-Neo cells assessed as reduction in cell viability measured after 72 hrs by MTT assay; type: toxicity, cell-based, Mesocricetus auratus; details: bhk-21, 72 h
[12] = Inhibition of Zika virus BeH823339 NS2B protease (49 to 95 residues) R96A mutant/NS3 protease (1 to 170 residues) R29G/ C80S/C143S mutant expressed in Escherichia coli BL21 (DE3) cells using Bz-Nle-Lys-Lys-Arg-AMC as a fluorogenic substrate preincubated with enzyme for 10 mins by fluorescence-based analysis
[13] = system: Zika virus; test: Inhibition of Zika virus BeH823339 NS2B protease (49 to 95 residues) R96A mutant/NS3 protease (1 to 170 residues) R29G/ C80S/C143S mutant expressed in Escherichia coli BL21 (DE3) cells using Bz-Nle-Lys-Lys-Arg-AMC as a fluorogenic substrate at 100 uM preincubated with enzyme for 10 mins in presence of 0.001% TritonX-100 by fluorescence-based analysis
[14] = system: Zika virus; test: Inhibition of Zika virus BeH823339 NS2B protease (49 to 95 residues) R96A mutant/NS3 protease (1 to 170 residues) R29G/ C80S/C143S mutant expressed in Escherichia coli BL21 (DE3) cells using Bz-Nle-Lys-Lys-Arg-AMC as a fluorogenic substrate at 10 uM preincubated with enzyme for 10 mins in presence of BSA by fluorescence-based analysis relative to control
[15] = target: Cruzipain (Trypanosoma cruzi) (UniProt P25779); test: Inhibition of recombinant Trypanosoma cruzi Cruzain using Z-Phe-Arg-AMC as fluorogenic substrate at 12.5 uM preincubated with enzyme for 10 mins by fluorescence-based analysis relative to control
[16] = system: Zika virus; test: Inhibition of Zika virus BeH823339 NS2B protease (49 to 95 residues) R96A mutant/NS3 protease (1 to 170 residues) R29G/ C80S/C143S mutant expressed in Escherichia coli BL21 (DE3) cells using Bz-Nle-Lys-Lys-Arg-AMC as a fluorogenic substrate at 12.5 uM preincubated with 0.2 nM enzyme for 10 mins by fluorescence-based analysis relative to control
[17] = system: Zika virus; test: Inhibition of Zika virus BeH823339 NS2B protease (49 to 95 residues) R96A mutant/NS3 protease (1 to 170 residues) R29G/ C80S/C143S mutant expressed in Escherichia coli BL21 (DE3) cells using Bz-Nle-Lys-Lys-Arg-AMC as a fluorogenic substrate at 12.5 uM preincubated with 2 nM enzyme for 10 mins by fluorescence-based analysis relative to control

Sequence of Cruzipain (Trypanosoma cruzi) (P25779 123-467 limits assumed): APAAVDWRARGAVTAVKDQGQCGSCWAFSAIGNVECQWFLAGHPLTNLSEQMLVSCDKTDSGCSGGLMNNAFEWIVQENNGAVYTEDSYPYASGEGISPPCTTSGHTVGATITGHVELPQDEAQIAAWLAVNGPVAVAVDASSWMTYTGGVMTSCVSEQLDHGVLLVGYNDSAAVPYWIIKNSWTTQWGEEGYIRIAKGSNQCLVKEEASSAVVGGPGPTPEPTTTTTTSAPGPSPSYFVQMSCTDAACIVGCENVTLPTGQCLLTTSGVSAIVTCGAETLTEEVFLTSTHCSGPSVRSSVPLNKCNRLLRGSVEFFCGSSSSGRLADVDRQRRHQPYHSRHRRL

Row | Structure (SMILES) | inhibition at 10 µM [1] [%] | inhibition at 2 µM [2] [%] | viability at 72 h, 10 µM [3] [%] | viability at 72 h, 2 µM [4] [%] | inhibition [5] [%] | inhibition [6] [%] | EC50 [7] [µM] | CC50 at 72 h [8] [µM] | selectivity ratio [9] | inhibition at 10 µM [10] [%] | Activity [11] | IC50 [12] [µM] | inhibition [13] [%] | inhibition [14] [%] | inhibition [15] [%] | inhibition [16] [%] | inhibition [17] [%]
1 | O=C(CNS(=O)(=O)c1ccc(F)cc1)Nc1nc2ccccc2s1 | 65.1 | 15.9 | 26.5 | 95.6 | 43 | – | – | – | – | – | – | – | – | – | – | – | –
2 | Cc1ccc(S(=O)(=O)Nc2ccc(C(=O)Nc3nc4ccccc4s3)cc2)cc1 | 83 | 5.5 | 19.5 | 70.6 | 28 | 20 | – | – | – | – | – | – | – | – | – | – | –
3 | COc1cc(Cl)ccc1S(=O)(=O)Nc1ccc(C(=O)Nc2nc3ccccc3s2)cc1 | 100 | 64.5 | 17.5 | 44 | 5 | 3 | 10.7 | 23.9 | 2.2 | 3.4 | Non-Toxic | – | – | – | – | – | –
4 | COc1ccc(S(=O)(=O)Nc2ccc(C(=O)Nc3nc4ccccc4[nH]3)cc2)cc1 | 0 | 0 | 25.9 | 93.1 | 43 | – | – | – | – | – | – | – | – | – | – | – | –
5 | COc1ccc(S(=O)(=O)NCC(=O)Nc2nc3ccccc3s2)cc1 | 0 | 0 | 82.7 | 104 | 62 | – | – | – | – | – | – | – | – | – | – | – | –
6 | Cc1ccc(S(=O)(=O)NCC(=O)Nc2nc3ccccc3s2)cc1 | 27.9 | 6.8 | 74.4 | 101 | 21 | – | – | – | – | – | – | – | – | – | – | – | –
7 | O=C(Nc1nc2ccccc2s1)c1ccc(NS(=O)(=O)c2ccc(F)cc2)cc1 | 54.7 | 15.3 | 40.4 | 93.6 | 27 | 22 | – | – | – | – | – | – | – | – | – | – | –
8 | COc1ccc(S(=O)(=O)Nc2ccc(C(=O)Nc3nccs3)cc2)cc1 | 16.1 | 4.9 | 98.9 | 95.7 | 7 | – | – | – | – | – | – | – | – | – | – | – | –
9 | CC(=O)Nc1ccc(S(=O)(=O)Nc2ccc(C(=O)Nc3nc4ccccc4s3)cc2)cc1 | 25.8 | 0.9 | 72.3 | 98.1 | 57 | 44 | – | – | – | – | – | – | – | – | – | – | –
10 | O=C(Nc1nc2ccccc2s1)c1ccc(NS(=O)(=O)c2ccccc2)cc1 | 82.6 | 44.7 | 17.7 | 85.9 | 28 | 20 | – | – | – | – | – | – | – | – | – | – | –
11 | O=C(Nc1nc2ccccc2s1)c1ccc(NS(=O)(=O)c2ccc([N+](=O)[O-])cc2)cc1 | 72.1 | 0 | 99.7 | 101 | 39 | 30 | 7.5 | 30.2 | 4 | 23.4 | Non-Toxic | – | – | – | – | – | –
12 | CC(C)(C)OC(=O)NCC(=O)Nc1nc2ccccc2s1 | 56.5 | 18.9 | 60.1 | 104 | – | – | 17 | 79 | 4.7 | – | – | – | – | – | – | – | –
13 | COc1ccc(S(=O)(=O)Nc2cccc(C(=O)Nc3nc4ccccc4s3)c2)cc1 | 87.5 | 72.9 | 17.7 | 79.3 | 11 | 2 | 5.1 | 128 | 25.1 | 40.3 | Non-Toxic | – | – | – | – | – | –
14 | COc1ccc(S(=O)(=O)Nc2ccccc2C(=O)Nc2nc3ccccc3[nH]2)cc1 | 98.8 | 97.6 | 19.9 | 33.5 | 100 | 62 | 33.9 | 56.5 | 1.7 | 46.4 | Non-Toxic | 8 | 42 | 8 | 58 | 62 | 16
15 | O=C(Nc1nc2ccccc2s1)c1ccc(NS(=O)(=O)c2ccc(Br)cc2)cc1 | 75.7 | 69.1 | 22.7 | 97 | 4 | 7 | 5 | 45.8 | 9.2 | 60.4 | Non-Toxic | – | – | – | – | – | –
